# Measured values reported in ChEMBL document CHEMBL1201862, “PubChem BioAssay data set” (2004).
# Activity calls are given as the source filed them.
# How the values were obtained:
# [1] = biological target: T1, Aryl hydrocarbon receptor (Homo sapiens, UniProt P35869); test: Luminescence-based cell-based high throughput dose response assay for activators of the Aryl Hydrocarbon Receptor (AHR). [Related pubchem assays: 2796 (Primary screen (AHR activators in singlicate)), 2845 (Confirmation screen (AHR activators in triplicate)), 434939 (Counterscreen (PXR activators in triplicate)), 2804 (Summary (AHR activators))]; format: ADME
# T1 sequence (P35869 whole entry): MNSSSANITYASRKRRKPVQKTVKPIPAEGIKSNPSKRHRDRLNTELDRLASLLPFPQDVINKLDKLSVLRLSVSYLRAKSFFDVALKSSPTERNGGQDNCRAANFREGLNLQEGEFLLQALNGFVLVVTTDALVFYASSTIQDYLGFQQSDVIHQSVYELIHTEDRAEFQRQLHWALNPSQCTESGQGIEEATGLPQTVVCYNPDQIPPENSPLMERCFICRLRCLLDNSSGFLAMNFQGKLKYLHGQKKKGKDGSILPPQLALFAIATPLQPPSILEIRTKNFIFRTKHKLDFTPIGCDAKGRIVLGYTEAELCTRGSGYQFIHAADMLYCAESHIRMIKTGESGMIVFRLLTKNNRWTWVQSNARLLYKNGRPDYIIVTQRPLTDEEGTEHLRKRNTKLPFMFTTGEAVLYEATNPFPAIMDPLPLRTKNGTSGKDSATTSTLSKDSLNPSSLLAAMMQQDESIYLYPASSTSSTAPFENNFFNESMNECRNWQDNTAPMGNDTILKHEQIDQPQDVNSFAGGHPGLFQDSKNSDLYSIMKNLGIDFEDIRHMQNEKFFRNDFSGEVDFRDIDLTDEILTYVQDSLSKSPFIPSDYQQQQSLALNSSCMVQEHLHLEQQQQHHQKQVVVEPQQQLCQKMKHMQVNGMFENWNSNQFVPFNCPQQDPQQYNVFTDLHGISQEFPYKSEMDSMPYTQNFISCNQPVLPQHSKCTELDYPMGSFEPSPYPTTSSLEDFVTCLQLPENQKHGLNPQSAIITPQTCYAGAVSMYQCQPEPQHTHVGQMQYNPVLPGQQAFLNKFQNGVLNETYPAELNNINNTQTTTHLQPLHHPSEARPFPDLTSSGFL
# [2] = biological target: Protein-tyrosine kinase 2-beta (Homo sapiens, UniProt Q14289);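 also: potency of inhibitors of PYK2 kinase phosphorylation of poly-GT substrate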
# [3] = biological target: Peroxisome proliferator-activated receptor gamma/Nuclear receptor coactivator 2 (Homo sapiens, UniProt P37231); format: functional;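 also: agonist potency for raising coactivator recruitment to the receptor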
# [4] = biological target: Peroxisome proliferator-activated receptor gamma/Nuclear receptor coactivator 3 (Homo sapiens, UniProt P37231); format: functional;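 also: agonist potency for raising coactivator recruitment to the receptor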
# [5] = biological target: Peroxisome proliferator-activated receptor gamma/Nuclear receptor coactivator 1 (Homo sapiens, UniProt P37231); format: functional;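 also: agonist potency as compounds enhance coactivator SRC-1 recruitment to PPARgamma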
# Estrogen receptor beta [6] = biological target: T2, Estrogen receptor beta (Homo sapiens, UniProt Q92731); test: blockers of SRC-3 recruitment to ERβ – biochemical, ELISA, streptavidin-HRP readout, orthogonal assay, confirmation (AID 1060)
# Estrogen receptor = biological target: T3, Estrogen receptor (Homo sapiens, UniProt P03372);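 also: potency for inhibiting coactivator peptide recruitment to the receptor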
# T3 sequence (P03372 whole entry): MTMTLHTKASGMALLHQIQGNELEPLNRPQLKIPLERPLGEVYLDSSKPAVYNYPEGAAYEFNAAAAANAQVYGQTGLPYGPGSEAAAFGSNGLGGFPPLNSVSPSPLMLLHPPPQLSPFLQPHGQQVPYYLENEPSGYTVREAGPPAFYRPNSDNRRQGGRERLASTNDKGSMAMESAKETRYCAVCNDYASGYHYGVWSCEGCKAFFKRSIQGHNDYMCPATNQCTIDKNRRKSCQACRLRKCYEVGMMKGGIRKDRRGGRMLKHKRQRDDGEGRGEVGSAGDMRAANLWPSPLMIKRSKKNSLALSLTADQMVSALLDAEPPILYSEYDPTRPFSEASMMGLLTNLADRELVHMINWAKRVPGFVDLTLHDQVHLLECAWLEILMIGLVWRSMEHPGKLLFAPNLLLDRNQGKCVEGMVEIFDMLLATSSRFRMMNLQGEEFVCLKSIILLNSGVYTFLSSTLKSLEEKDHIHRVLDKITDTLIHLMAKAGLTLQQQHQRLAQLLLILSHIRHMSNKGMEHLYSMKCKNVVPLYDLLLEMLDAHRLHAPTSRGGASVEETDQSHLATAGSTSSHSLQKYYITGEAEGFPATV
# [7] = biological target: E3 ubiquitin-protein ligase Mdm2 (Homo sapiens, UniProt Q00987); test: MDM2-luc reporter signal enhancers, multi-concentration potency testing, MDM2 ubiquitin-protein ligase inhibitor program, whole-cell format, luminescence detection, 384-well microplate (AID 1394); format: functional;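 also: MDM2 E3 inhibitors raise luminescence so EC50 is for signal enhancement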
# Estrogen receptor beta [8] = biological target: T2, Estrogen receptor beta
# T2 sequence (Q92731 whole entry): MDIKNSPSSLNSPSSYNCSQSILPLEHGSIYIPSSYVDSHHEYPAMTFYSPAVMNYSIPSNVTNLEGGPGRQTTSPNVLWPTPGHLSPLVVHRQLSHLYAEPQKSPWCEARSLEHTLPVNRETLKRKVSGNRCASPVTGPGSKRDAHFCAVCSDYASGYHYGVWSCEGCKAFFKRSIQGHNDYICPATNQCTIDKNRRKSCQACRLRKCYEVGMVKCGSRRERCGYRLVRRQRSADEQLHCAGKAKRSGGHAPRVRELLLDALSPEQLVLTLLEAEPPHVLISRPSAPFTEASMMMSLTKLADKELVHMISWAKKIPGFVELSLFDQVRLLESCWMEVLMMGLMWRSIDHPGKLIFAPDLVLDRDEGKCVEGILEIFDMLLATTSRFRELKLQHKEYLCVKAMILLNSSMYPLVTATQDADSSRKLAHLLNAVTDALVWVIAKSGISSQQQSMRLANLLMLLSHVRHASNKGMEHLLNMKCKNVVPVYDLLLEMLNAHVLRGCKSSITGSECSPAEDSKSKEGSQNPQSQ
# Protein-tyrosine kinase 2-beta, sequence (Q14289 whole entry): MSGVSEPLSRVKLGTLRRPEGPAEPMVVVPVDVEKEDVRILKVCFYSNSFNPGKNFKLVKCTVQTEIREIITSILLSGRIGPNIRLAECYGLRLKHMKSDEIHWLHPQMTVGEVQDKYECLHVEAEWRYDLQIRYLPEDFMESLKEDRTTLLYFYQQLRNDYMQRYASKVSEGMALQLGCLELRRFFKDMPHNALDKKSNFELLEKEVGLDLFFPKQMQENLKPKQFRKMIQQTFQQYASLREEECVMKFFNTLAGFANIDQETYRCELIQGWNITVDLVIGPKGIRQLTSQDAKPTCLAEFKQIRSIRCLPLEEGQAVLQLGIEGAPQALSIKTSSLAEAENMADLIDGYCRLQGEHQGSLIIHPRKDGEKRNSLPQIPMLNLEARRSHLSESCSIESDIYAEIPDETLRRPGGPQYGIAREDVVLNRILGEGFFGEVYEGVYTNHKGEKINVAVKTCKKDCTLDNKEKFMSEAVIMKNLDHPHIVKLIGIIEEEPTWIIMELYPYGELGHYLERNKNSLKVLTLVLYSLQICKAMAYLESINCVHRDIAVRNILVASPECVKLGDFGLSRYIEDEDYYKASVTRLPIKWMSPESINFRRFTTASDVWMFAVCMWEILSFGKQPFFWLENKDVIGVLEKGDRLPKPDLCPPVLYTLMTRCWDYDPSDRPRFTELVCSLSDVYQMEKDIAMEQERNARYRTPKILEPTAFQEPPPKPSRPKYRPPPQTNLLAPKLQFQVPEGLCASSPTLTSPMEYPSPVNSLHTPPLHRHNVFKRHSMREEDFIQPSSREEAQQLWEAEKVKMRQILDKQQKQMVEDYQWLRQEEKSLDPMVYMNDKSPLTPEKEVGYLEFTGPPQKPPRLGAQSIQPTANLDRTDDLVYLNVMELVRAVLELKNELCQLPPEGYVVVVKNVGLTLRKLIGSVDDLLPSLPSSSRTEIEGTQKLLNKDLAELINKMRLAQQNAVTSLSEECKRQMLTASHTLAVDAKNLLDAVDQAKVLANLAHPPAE
# Peroxisome proliferator-activated receptor gamma/Nuclear receptor coactivator 2, sequence (P37231 whole entry): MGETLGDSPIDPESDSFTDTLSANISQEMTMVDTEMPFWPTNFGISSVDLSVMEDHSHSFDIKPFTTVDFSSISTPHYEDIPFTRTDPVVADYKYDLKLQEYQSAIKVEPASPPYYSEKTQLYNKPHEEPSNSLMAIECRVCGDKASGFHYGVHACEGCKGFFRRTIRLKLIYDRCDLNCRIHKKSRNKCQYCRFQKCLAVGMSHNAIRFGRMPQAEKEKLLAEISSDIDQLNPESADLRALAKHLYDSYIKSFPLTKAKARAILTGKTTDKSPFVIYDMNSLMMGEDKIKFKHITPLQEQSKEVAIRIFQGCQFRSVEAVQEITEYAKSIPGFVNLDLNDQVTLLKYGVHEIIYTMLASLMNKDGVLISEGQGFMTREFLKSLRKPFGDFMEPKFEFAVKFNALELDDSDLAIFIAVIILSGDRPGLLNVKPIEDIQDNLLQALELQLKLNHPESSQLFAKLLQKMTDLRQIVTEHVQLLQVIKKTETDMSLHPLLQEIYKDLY
# Peroxisome proliferator-activated receptor gamma/Nuclear receptor coactivator 2, sequence (Q15596 whole entry, further chain): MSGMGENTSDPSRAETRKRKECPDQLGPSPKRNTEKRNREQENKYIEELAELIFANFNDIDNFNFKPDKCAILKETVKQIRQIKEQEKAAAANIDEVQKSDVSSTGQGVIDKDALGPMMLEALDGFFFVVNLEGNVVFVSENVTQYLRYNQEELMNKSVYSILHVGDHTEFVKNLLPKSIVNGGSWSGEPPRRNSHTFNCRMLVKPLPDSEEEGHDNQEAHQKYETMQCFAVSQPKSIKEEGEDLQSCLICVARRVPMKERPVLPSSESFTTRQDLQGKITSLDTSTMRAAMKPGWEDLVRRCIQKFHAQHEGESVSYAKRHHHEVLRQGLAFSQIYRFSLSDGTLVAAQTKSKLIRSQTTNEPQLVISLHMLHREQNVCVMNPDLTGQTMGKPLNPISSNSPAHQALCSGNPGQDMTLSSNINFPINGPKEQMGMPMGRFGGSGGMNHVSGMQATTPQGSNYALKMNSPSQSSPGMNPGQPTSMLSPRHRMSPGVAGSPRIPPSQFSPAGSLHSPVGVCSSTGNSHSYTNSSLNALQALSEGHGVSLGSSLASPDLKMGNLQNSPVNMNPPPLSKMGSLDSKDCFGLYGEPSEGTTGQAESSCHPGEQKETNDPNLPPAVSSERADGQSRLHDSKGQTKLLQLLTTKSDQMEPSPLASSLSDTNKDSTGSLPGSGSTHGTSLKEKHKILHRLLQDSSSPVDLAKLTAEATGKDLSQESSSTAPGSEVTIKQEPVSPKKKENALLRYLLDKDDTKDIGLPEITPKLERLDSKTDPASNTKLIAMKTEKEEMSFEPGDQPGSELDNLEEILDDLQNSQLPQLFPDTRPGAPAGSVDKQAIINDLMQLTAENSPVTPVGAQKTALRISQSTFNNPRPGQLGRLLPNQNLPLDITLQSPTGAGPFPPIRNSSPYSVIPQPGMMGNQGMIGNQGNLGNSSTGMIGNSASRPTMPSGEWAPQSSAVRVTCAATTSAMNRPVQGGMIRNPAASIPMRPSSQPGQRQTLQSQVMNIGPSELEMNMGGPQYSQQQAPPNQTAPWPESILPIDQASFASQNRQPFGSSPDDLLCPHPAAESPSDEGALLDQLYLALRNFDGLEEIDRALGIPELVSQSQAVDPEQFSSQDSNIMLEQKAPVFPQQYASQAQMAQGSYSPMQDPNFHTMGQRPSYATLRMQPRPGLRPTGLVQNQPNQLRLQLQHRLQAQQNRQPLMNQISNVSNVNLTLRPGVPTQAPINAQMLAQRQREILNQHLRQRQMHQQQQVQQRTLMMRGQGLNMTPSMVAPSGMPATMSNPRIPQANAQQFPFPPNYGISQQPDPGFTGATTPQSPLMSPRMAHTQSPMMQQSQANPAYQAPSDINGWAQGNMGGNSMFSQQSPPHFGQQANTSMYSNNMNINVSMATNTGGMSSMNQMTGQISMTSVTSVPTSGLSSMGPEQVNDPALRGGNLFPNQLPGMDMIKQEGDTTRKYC
# E3 ubiquitin-protein ligase Mdm2, sequence (Q00987 whole entry): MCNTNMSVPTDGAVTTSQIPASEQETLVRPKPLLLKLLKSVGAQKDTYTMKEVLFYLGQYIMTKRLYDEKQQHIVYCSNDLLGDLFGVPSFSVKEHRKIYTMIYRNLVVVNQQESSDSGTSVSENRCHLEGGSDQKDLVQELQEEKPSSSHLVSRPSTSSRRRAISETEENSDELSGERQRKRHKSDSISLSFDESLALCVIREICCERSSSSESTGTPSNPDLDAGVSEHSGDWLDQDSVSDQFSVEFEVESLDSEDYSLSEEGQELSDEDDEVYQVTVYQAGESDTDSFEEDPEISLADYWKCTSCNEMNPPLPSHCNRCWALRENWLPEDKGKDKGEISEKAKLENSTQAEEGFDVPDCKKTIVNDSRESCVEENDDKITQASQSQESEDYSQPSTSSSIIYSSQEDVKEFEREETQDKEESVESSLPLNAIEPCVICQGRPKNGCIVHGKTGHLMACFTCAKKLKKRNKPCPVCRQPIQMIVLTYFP
smiles,measurement,setting,value
Cc1cnc(NC(=O)c2c(Cl)cnn2C)s1,EC50,[1],5.87 µM (active)
C=CCn1c(SCC(=O)N2CCCC2)nc2scc(-c3cccs3)c2c1=O,IC50,[2],> 69.5 µM (not active)
CC1CCN(S(=O)(=O)c2ccc(C(=O)Nc3sccc3C(N)=O)cc2)CC1,EC50,[3],145 µM (not active)
same,EC50,[4],79.2 µM (not active)
same,EC50,[5],71.2 µM (not active)
CCC1(C)NC(=O)N(CC(=O)Nc2sc3c(c2C(N)=O)CCC3)C1=O (stereo not given),IC50,Estrogen receptor beta [6],0.0325 µM (not active)
same,IC50,Estrogen receptor,18.2 µM (active)
COc1ccc(Nc2nc(C(=O)N3CCc4ccccc4C3)cs2)cc1,EC50,[7],12.3 µM (not active)
Cc1ccc(S(=O)(=O)Cc2ccc(C(=O)N3CCC4(CC3)OCCO4)o2)cc1,IC50,Estrogen receptor beta [8],12.8 µM (active)
same,IC50,Estrogen receptor,43 µM (not active)
